Patent US10508090B2, “Sulfonamides as GPR40- and GPR120-agonists” (DOMPÉ FARMACEUTICI S.P.A., priority 2016, dated 2019)

Experiments:
[1] = tested on: NCI-H716 cells; experiment: In vitro GLP-1 secretion in differentiated NCI-H716 cells (ELISA); type: cell-based, human; settings: for fold induction at 100 µM: Homo sapiens, NCI-H716, 0.5 h, compound at 100 μM for 30 minutes, differentiated NCI-H716 cells, read-out: GLP-1 RELEASE NCI, fold of increase over DMSO
Experimental: (§1) GPR120/40 Activation: In Vitro GLP-1 Secretion
(§2) 2×10^5 STC-1 cells were seeded in a 12-plate and 24 hours later were treated with selected compounds. 1×10^6 NCI-H716 cells were differentiated in matrigel-coated 12-plate and treated 48 h hours later.
(§3) The day of the experiment, wells were washed once with 1 ml of PBS and then cells were stimulated with 0.5 ml of DMEM (w/o serum, w/o phenol-red) containing 30 μM of selected compounds in STC1 and 100 μM in differentiated NCIH716 for 30 minutes. DMSO has been used as negative control, α-linolenic acid (ALA) (endogenous agonist) as positive control. After stimulations, supernatants were collected, centrifuged at 4000 rpm for 4′ at 4° C., and used for the GLP1 detection by ELISA.

[2] = biological target: T1, human GPR120 (Homo sapiens, UniProt Q5NUL3); experiment: In vitro Ca2+ mobilization, CHO-k1 cells stably expressing human GPR120; type: cell-based; settings: for AC50: intracellular calcium, CHO-k1 cells expressing human GPR120, read-out: Ca2+ hGPR120 AC50
T1 construct: expressed in transfected cells; host or cells: CHO-k1
T1 sequence (Q5NUL3 1-361): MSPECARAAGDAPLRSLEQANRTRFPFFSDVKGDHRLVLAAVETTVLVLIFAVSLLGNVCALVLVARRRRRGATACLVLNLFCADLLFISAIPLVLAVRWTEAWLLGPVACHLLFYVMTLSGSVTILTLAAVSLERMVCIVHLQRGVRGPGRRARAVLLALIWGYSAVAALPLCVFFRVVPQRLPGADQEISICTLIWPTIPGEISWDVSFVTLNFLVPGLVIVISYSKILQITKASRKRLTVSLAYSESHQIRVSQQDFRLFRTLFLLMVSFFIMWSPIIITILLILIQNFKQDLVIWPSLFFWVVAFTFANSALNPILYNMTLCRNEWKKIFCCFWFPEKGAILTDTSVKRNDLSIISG
Experimental: (§4) GPR120/40 Activation: In Vitro Ca^2+ Mobilization
(§5) The activation of GPR120/40 by all compounds was determined by measuring changes in intracellular calcium levels using a Ca^2+ sensitive fluorescent dye.
(§6) The experiments were performed using CHO-k1 cells stably expressing the human GPR120 or GPR40. Cells were seeded 10000 cells/well in 384-plates in complete medium and grown overnight at 37° C., 5% CO2. 24 h after seeding, cell culture media was removed and cells were loaded with the fluorescent Ca^2+ indicator (Fluo-8 NW dye in Tyrode's buffer). Dye-loaded cell plates were incubated for 1 h at room temperature under a yellow light sodium lamp.
(§7) Cell were treated with test compounds and controls at 10, 30 and 60 μM. The kinetic response was monitored over a period of 7 minutes (using FLIPRTETRA system). A second injection of 3× concentrated reference agonist at ˜EC50 were then administered to cells and the signal of the emitted fluorescence was measured over a period of additional 3 minutes. The agonist effect is expressed as a percentage of activation, with 100% activation being a result in which the Response Values of the test wells reach a level identical to the one of the Stimulator Controls (alpha linolenic acid reference agonist EC100). 0% activation is a result in which the Response Values of the test wells reach a level identical to the one of the Neutral Controls (assay buffer) in the AGO_KRV (Agonist Kinetic Response Value) response value.

[3] = biological target: T2, human GPR40 (Homo sapiens, UniProt O14842); experiment: In vitro Ca2+ mobilization, CHO-k1 cells stably expressing human GPR40; type: cell-based; settings: for AC50: read-out: Ca2+ hGPR40 AC50
T2 construct: expressed in transfected cells; host or cells: CHO-k1
T2 sequence (O14842 whole entry): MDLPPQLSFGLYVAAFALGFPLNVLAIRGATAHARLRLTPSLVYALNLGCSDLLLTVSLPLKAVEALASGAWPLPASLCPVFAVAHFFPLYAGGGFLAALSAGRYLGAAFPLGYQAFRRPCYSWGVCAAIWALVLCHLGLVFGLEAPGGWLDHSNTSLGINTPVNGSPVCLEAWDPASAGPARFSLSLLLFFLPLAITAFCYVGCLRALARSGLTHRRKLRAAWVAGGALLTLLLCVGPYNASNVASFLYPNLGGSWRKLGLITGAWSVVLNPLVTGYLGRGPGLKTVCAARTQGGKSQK
Experimental: as §4, §5, §6, §7

[4] = tested on: STC-1 cells; experiment: In vitro GLP-1 secretion in STC-1 cells (ELISA); type: cell-based, murine; settings: for fold induction at 30 µM: Mus musculus, STC-1, 0.5 h, compound at 30 μM for 30 minutes, STC-1 cells, read-out: GLP-1 RELEASE STC-1, fold of increase over DMSO
Experimental: as §1, §2, §3

[5] = intracellular calcium, CHO-k1 cells expressing human GPR40

Structure (SMILES)	fold induction at 100 µM [1]	AC50 [2]	AC50 [3, 5]	fold induction at 30 µM [4]	GLP-1 secretion in NCI-H716 (human) cells, in words [1]	agonistic activity on GPR120 (AC50 in the calcium mobilization assay), in words [2]	agonistic activity on GPR40 (AC50 in the calcium mobilization assay), in words [3]	GLP-1 secretion in STC1 (murine) cells, in words [4]	Ca2+ hGPR40 AC50 [3, 5]
Cc1cc(N(C)C)cc(C)c1NS(=O)(=O)c1cccc(CCCCCCC(=O)O)c1 [Example 5, 7-(3-(N-(4-(dimethylamino)-2,6-dimethylphenyl)sulfamoyl)phenyl)heptanoic acid]	1.92 ± 0.14	7.9 µM	10.4 µM	4 ± 0.27	–	–	–	–	–
Cc1cc(Cl)cc(C)c1NS(=O)(=O)c1cccc(CCCCCCC(=O)O)c1 [Example 4, 7-(3-(N-(4-chloro-2,6-dimethylphenyl)sulfamoyl)phenyl)heptanoic acid]	1.92 ± 0.57	4.36 µM	41.3 µM	4.1 ± 0.54	efficacious	low microMolar range	low microMolar range	efficacious	–
CCn1ncc(NS(=O)(=O)c2cccc(CCCCCCC(=O)O)c2)n1 [Example 26, 7-(3-(N-(2-ethyl-2H-1,2,3-triazol-4-yl)sulfamoyl)phenyl)heptanoic acid]	2.81 ± 0.72	18.9 µM	20.1 µM	1.82 ± 0.41	–	–	–	–	–
CC1COC(NS(=O)(=O)c2cccc(CCCCCCC(=O)O)c2)=N1 (stereo not shown) [Example 28, 7-(3-(N-(4-methyl-4,5-dihydrooxazol-2-yl)sulfamoyl)phenyl)heptanoic acid]	3.88 ± 1.96	16.1 µM	7.1 µM	3.64 ± 0.43	–	–	–	–	–
Cc1cc(O)cc(C)c1NS(=O)(=O)c1cccc(CCCCCCC(=O)O)c1 [Example 31, 7-(3-(N-(4-hydroxy-2,6-dimethylphenyl)sulfamoyl)phenyl)heptanoic acid]	3.7 ± 0.56	9.3 µM	3.2 µM	3.55 ± 0.87	–	–	–	–	–
Cc1cc(F)cc(C)c1NS(=O)(=O)c1cccc(CCCCCCC(=O)O)c1 [Example 1, 7-(3-(N-(4-fluoro-2,6-dimethylphenyl)sulfamoyl)phenyl)heptanoic acid]	1.08 ± 0.1	5.24 µM	140 µM	1.87 ± 0.5	efficacious	low microMolar range	low microMolar range	efficacious	–
O=C(O)CCCCCCc1cccc(S(=O)(=O)NC2=NC3CCCCC3N2)c1 (stereo not shown) [Example 29, 7-(3-(N-(3a,4,5,6,7,7a-hexahydro-1H-benzo[d]imidazol-2-yl)sulfamoyl)phenyl)heptanoic Acid]	2.89 ± 0.81	12.4 µM	8.4 µM	1.12 ± 0.4	–	–	–	–	–
Cc1nsc(NS(=O)(=O)c2cccc(CCCCCCC(=O)O)c2)n1 [Example 17, 7-(3-(N-(3-methyl-1,2,4-thiadiazol-5-yl)sulfamoyl)phenyl)heptanoic acid]	2.19 ± 1.22	22.3 µM	13.9 µM	1.9 ± 0.51	–	–	–	–	–
Cc1cc(F)cc(C)c1C(=O)NS(=O)(=O)c1cccc(CCCCCCC(=O)O)c1 [Example 24, 7-{3-[(4-fluoro-2,6-dimethylbenzoyl)sulfamoyl]phenyl}heptanoic acid]	5.01 ± 0.99	5.9 µM	13.3 µM	4.19 ± 0.72	–	–	–	–	–
Cc1cc(F)cc(C)c1NS(=O)(=O)c1ccc(CCCCCCC(=O)O)cc1 [Example 25, 7-{4-[(4-fluoro-2,6-dimethylphenyl)sulfamoyl]phenyl}heptanoic acid]	3.2 ± 0.31	4.3 µM	6.1 µM	4.1 ± 0.78	–	–	–	–	–
Cc1cc(F)cc(-c2ccccc2)c1NS(=O)(=O)c1cccc(CCCCCCC(=O)O)c1 [Example 10, 7-(3-(N-(5-fluoro-3-methyl-[1,1′-biphenyl]-2-yl)sulfamoyl)phenyl)heptanoic acid]	2.5	16.5 µM	12.8 µM	4.7	efficacious	low microMolar range	low microMolar range	efficacious	–
Cc1cc(C(F)(F)F)cc(C)c1NS(=O)(=O)c1cccc(CCCCCCC(=O)O)c1 [Example 6, 7-(3-(N-(2,6-dimethyl-4-(trifluoromethyl)phenyl)sulfamoyl)phenyl)heptanoic acid]	2.54 ± 0.52	6 µM	11.7 µM	4.2 ± 0.45	efficacious	low microMolar range	low microMolar range	efficacious	–
Cc1cc(Oc2ccccc2)cc(C)c1NS(=O)(=O)c1cccc(CCCCCCC(=O)O)c1 [Example 33, 7-(3-(N-(2,6-dimethyl-4-phenoxyphenyl)sulfamoyl)phenyl)heptanoic acid]	1.58 ± 1.27	18 µM	–	3 ± 1.82	efficacious	low microMolar range	low microMolar range	efficacious	Inactive
Cc1cc(C)c(CNS(=O)(=O)c2cccc(CCCCCCC(=O)O)c2)c(C)c1 [Example 2, 7-(3-(N-(2,4,6-trimethylbenzyl)sulfamoyl)phenyl)heptanoic acid]	2.1 ± 0.52	7.09 µM	11.2 µM	3.2 ± 0.47	efficacious	low microMolar range	low microMolar range	efficacious	–
Cc1noc(C)c1NS(=O)(=O)c1cccc(CCCCCCC(=O)O)c1 [Example 19, 7-(3-(N-(3,5-dimethylisoxazol-4-yl)sulfamoyl)phenyl)heptanoic acid]	2.24 ± 0.39	17.6 µM	12.1 µM	2.57 ± 0.56	–	–	–	–	–
O=C(O)CCCCCCc1cccc(S(=O)(=O)Nc2cccc3c(O)cccc23)c1 [Example 23, 7-{3-[(5-hydroxynaphthalen-1-yl)sulfamoyl]phenyl}heptanoic acid]	4.69 ± 0.41	7.1 µM	8.2 µM	4.34 ± 0.51	–	–	–	–	–
Cn1nnc(NS(=O)(=O)c2cccc(CCCCCCC(=O)O)c2)n1 [Example 27, 7-(3-(N-(2-methyl-2H-tetrazol-5-yl)sulfamoyl)phenyl)heptanoic acid]	2.89 ± 0.55	10.1 µM	10.7 µM	1.99 ± 0.51	–	–	–	–	–
CC/C=C\C/C=C\C/C=C\CCCCCCCC(=O)O [ALA, α-linolenic acid, reference compound]	1.52	–	–	6.61	–	–	–	–	–
